In ChEMBL document CHEMBL1147597, “Synthesis and biological evaluations of novel benzimidazoles as potential antibacterial agents” (Bioorg Med Chem Lett, 2004):
pIC50: −log10 of the molar value. Converted amounts (≈) assume the structure as drawn.

How the values were obtained:
Escherichia coli [1] = experiment: Minimal inhibitory concentration against Escherichia coli (Range is 50-100 uM); type: functional
Staphylococcus aureus [2] = experiment: Minimal inhibitory concentration against Staphylococcus aureus (Range is 12-25 uM); type: functional
Escherichia coli [3] = experiment: Minimal inhibitory concentration against Escherichia coli; type: functional
Staphylococcus aureus [4] = experiment: In vitro minimal inhibitory concentration against Staphylococcus aureus.; type: functional
Staphylococcus aureus [5] = experiment: Minimal inhibitory concentration against Staphylococcus aureus (Range is 50-100 uM); type: functional
Staphylococcus aureus [6] = experiment: Minimal inhibitory concentration against Staphylococcus aureus (Range is 25-50 uM); type: functional
Escherichia coli [7] = experiment: Minimal inhibitory concentration against Escherichia coli (Range is 25-50 uM); type: functional
Escherichia coli [8] = experiment: Minimal inhibitory concentration against gram negative Escherichia coli 25922 strain (Range is 12-25 uM); type: functional; conditions: ATCC25922
Escherichia coli [9] = experiment: Minimal inhibitory concentration against Escherichia coli (Range is 12-25 uM); type: functional
Pseudomonas aeruginosa [10] = experiment: Minimal inhibitory concentration against gram negative Pseudomonas aeruginosa 25416 strain (Range is 12-25 uM); type: functional
Staphylococcus aureus [11] = experiment: Minimal inhibitory concentration against gram positive Staphylococcus aureus 13709 strain (Range is 6-12 uM); type: functional
Streptococcus pneumoniae [12] = experiment: Minimal inhibitory concentration against gram positive Streptococcus pneumoniae 6303 strain (Range is 6-12 uM); type: functional
Staphylococcus aureus [13] = experiment: Minimal inhibitory concentration against Staphylococcus aureus (Range is 6-12 uM); type: functional
Enterococcus hirae [14] = experiment: Minimal inhibitory concentration against gram positive Enterococcus hirae 29212 strain (Range is 1-3 uM); type: functional
Streptococcus pyogenes [15] = experiment: Minimal inhibitory concentration against gram positive Streptococcus pyogenes 49399 strain (Range is 3-6 uM); type: functional
Bacteria = experiment: Inhibitory activity against bacteria in the transcription/translation assay; type: functional, organism-based
Klebsiella pneumoniae [16] = experiment: Minimal inhibitory concentration against gram negative Klebsiella pneumoniae 13383 strain (Range is 6-12 uM); type: functional
Pseudomonas aeruginosa [17] = experiment: Minimal inhibitory concentration against gram negative Pseudomonas aeruginosa 25416 strain (Range is 50-100 uM); type: functional
Streptococcus pneumoniae [18] = experiment: Minimal inhibitory concentration against gram positive Streptococcus pneumoniae 6303 strain (Range is 12-25 uM); type: functional
Escherichia coli [19] = experiment: Minimal inhibitory concentration against gram negative Escherichia coli 25922 strain; type: functional; conditions: ATCC25922
Staphylococcus aureus [20] = experiment: Minimal inhibitory concentration against gram positive Staphylococcus aureus 13709 strain (Range is 3-6 uM); type: functional
Proteus vulgaris [21] = experiment: Minimal inhibitory concentration against gram negative Proteus vulgaris 8427 strain (Range is 50-100 uM); type: functional
Enterococcus hirae [22] = experiment: Minimal inhibitory concentration against gram positive Enterococcus hirae 29212 strain (Range is 3-6 uM); type: functional
Streptococcus pyogenes [23] = experiment: Minimal inhibitory concentration against gram positive Streptococcus pyogenes 49399 strain (Range is 6-12 uM); type: functional
Staphylococcus aureus [24] = experiment: Minimal inhibitory concentration against Staphylococcus aureus (Range is 3-6 uM); type: functional
Streptococcus pyogenes [25] = experiment: Minimal inhibitory concentration against gram positive Streptococcus pyogenes 49399 strain (Range is 25-50 uM); type: functional
Proteus vulgaris [26] = experiment: Minimal inhibitory concentration against gram negative Proteus vulgaris 8427 strain (Range is 25-50 uM); type: functional
Klebsiella pneumoniae [27] = experiment: Minimal inhibitory concentration against gram negative Klebsiella pneumoniae 13383 strain (Range is 25-50 uM); type: functional
Enterococcus hirae [28] = experiment: Minimal inhibitory concentration against gram positive Enterococcus hirae 29212 strain (Range is 25-50 uM); type: functional
Staphylococcus aureus [29] = experiment: Minimal inhibitory concentration against Staphylococcus aureus (Range is 12-50 uM); type: functional
Escherichia coli [30] = experiment: Minimal inhibitory concentration against gram negative Escherichia coli 25922 strain (Range is 25-50 uM); type: functional; conditions: ATCC25922

`O=C1c2cc(Cl)c(Cl)cc2C(=O)N1CCCCCn1c(C2CCNCC2)nc2cc(Cl)c(Cl)cc21` showed an MIC (Escherichia coli [1]) of 100 µM (≈ 55.4 µg/mL) and an MIC (Staphylococcus aureus [2]) of 25 µM (≈ 13.9 µg/mL).
In the case of `O=C(Cn1c(C2CCNCC2)nc2cc(Cl)c(Cl)cc21)N/N=C/c1ccc[nH]1`, the MIC (Escherichia coli [3]) was > 100 µM and the MIC (Staphylococcus aureus [2]) was 25 µM (≈ 10.5 µg/mL).
In the case of `O=C(O)CC/N=C(\S)NNC(=O)Cn1c(C2CCNCC2)nc2cc(Cl)c(Cl)cc21`, the MIC (Escherichia coli [3]) was > 100 µM and the MIC (Staphylococcus aureus [4]) was > 100 µM.
`O=C1c2ccc([N+](=O)[O-])cc2C(=O)N1CCCCCn1c(C2CCNCC2)nc2cc(Cl)c(Cl)cc21` was tested, and the MIC (Escherichia coli [1]) was 100 µM (≈ 53 µg/mL) and the MIC (Staphylococcus aureus [4]) was > 100 µM.
In the case of `Clc1cc2nc(C3CCNCC3)n(CCCCSc3[nH]cnc4ncnc3-4)c2cc1Cl`, the MIC (Escherichia coli [3]) was > 100 µM and the MIC (Staphylococcus aureus [4]) was > 100 µM.
For `O=C1c2cccc([N+](=O)[O-])c2C(=O)N1CCCCCn1c(C2CCNCC2)nc2cc(Cl)c(Cl)cc21`, the MIC (Escherichia coli [3]) was > 100 µM and the MIC (Staphylococcus aureus [4]) was > 100 µM.
For `O=C(Cn1c(C2CCNCC2)nc2cc(Cl)c(Cl)cc21)NNC(=S)NCc1ccco1`, the MIC (Escherichia coli [3]) was > 100 µM and the MIC (Staphylococcus aureus [5]) was 100 µM (≈ 48.1 µg/mL).
For `CN(C)c1ccc(N/C(S)=N/NC(=O)Cn2c(C3CCNCC3)nc3cc(Cl)c(Cl)cc32)cc1`, the MIC (Escherichia coli [3]) was > 100 µM and the MIC (Staphylococcus aureus [5]) was 100 µM (≈ 52 µg/mL).
In the case of `O=C(Cn1c(C2CCNCC2)nc2cc(Cl)c(Cl)cc21)N/N=C/c1ccc2c(c1)OCCO2`, the MIC (Escherichia coli [3]) was > 100 µM and the MIC (Staphylococcus aureus [5]) was 100 µM (≈ 48.8 µg/mL).
With `Clc1cc2nc(C3CCNCC3)n(CCCn3c(C4CCNCC4)nc4cc(Cl)c(Cl)cc43)c2cc1Cl` the MIC (Staphylococcus aureus [6]) was 50 µM (≈ 29 µg/mL) and the MIC (Escherichia coli [7]) was 50 µM (≈ 29 µg/mL).
In the case of `O=S(=O)(NCCCCCn1c(C2CCNCC2)nc2cc(Cl)c(Cl)cc21)c1ccccc1`, the MIC (Escherichia coli [3]) was > 100 µM and the MIC (Staphylococcus aureus [4]) was > 100 µM.
`Clc1cc2nc(C3CCNCC3)n(CCCCCCn3c(C4CCNCC4)nc4cc(Cl)c(Cl)cc43)c2cc1Cl` was tested, and the MIC (Escherichia coli [8]) was 25 µM (≈ 15.6 µg/mL), the MIC (Escherichia coli [9]) was 25 µM (≈ 15.6 µg/mL) and the MIC (Pseudomonas aeruginosa [10]) was 25 µM (≈ 15.6 µg/mL). It also gave an MIC (Staphylococcus aureus [11]) of 12 µM (≈ 7.47 µg/mL), an MIC (Streptococcus pneumoniae [12]) of 12 µM (≈ 7.47 µg/mL) and an MIC (Staphylococcus aureus [13]) of 12 µM (≈ 7.47 µg/mL). For the same compound, the MIC (Enterococcus hirae [14]) was 3 µM (≈ 1.87 µg/mL), the MIC (Streptococcus pyogenes [15]) was 6 µM (≈ 3.73 µg/mL) and the pIC50 (Bacteria) was < 4.00. The MIC (Klebsiella pneumoniae [16]) was 12 µM (≈ 7.47 µg/mL).
In the case of `COc1cccc(/C=N/NC(=O)Cn2c(C3CCNCC3)nc3cc(Cl)c(Cl)cc32)c1`, the MIC (Escherichia coli [3]) was > 100 µM and the MIC (Staphylococcus aureus [6]) was 50 µM (≈ 23 µg/mL).
`O=C(Cn1c(C2CCNCC2)nc2cc(Cl)c(Cl)cc21)N/N=C/c1cc[n+]([O-])cc1` was tested, and the MIC (Escherichia coli [3]) was > 100 µM and the MIC (Staphylococcus aureus [4]) was > 100 µM.
`O=C(Cn1c(C2CCNCC2)nc2cc(Cl)c(Cl)cc21)NNC(=S)NCCCN1CCOCC1` was tested, and the MIC (Escherichia coli [3]) was > 100 µM and the MIC (Staphylococcus aureus [4]) was > 100 µM.
`Clc1cc2nc(C3CCNCC3)n(CCCCCn3cnnc3)c2cc1Cl` was tested, and the MIC (Escherichia coli [3]) was > 100 µM and the MIC (Staphylococcus aureus [4]) was > 100 µM.
`O=C(Cn1c(C2CCNCC2)nc2cc(Cl)c(Cl)cc21)N/N=C/c1c[nH]c2ccc(OCc3ccccc3)cc12` was tested, and the MIC (Pseudomonas aeruginosa [17]) was 100 µM (≈ 57.6 µg/mL), the MIC (Streptococcus pneumoniae [18]) was 25 µM (≈ 14.4 µg/mL) and the MIC (Escherichia coli [3]) was > 100 µM. For the same compound, the MIC (Escherichia coli [19]) was > 100 µM, the MIC (Staphylococcus aureus [20]) was 6 µM (≈ 3.45 µg/mL) and the pIC50 (Bacteria) was < 4.00. It also gave an MIC (Proteus vulgaris [21]) of 100 µM (≈ 57.6 µg/mL), an MIC (Klebsiella pneumoniae [16]) of 12 µM (≈ 6.91 µg/mL) and an MIC (Enterococcus hirae [22]) of 6 µM (≈ 3.45 µg/mL). For the same compound, the MIC (Streptococcus pyogenes [23]) was 12 µM (≈ 6.91 µg/mL) and the MIC (Staphylococcus aureus [24]) was 6 µM (≈ 3.45 µg/mL).
For `O=C1c2ccccc2C(=O)N1CCn1c(C2CCNCC2)nc2cc(Cl)c(Cl)cc21`, the MIC (Escherichia coli [3]) was > 100 µM and the MIC (Staphylococcus aureus [4]) was > 100 µM.
For `O=C(NCCCCCn1c(C2CCNCC2)nc2cc(Cl)c(Cl)cc21)c1ccccc1`, the MIC (Escherichia coli [3]) was > 100 µM and the MIC (Staphylococcus aureus [4]) was > 100 µM.
`Clc1cc2nc(C3CCNCC3)n(CCCCCn3cnc4ccccc43)c2cc1Cl` was tested, and the MIC (Escherichia coli [1]) was 100 µM (≈ 45.6 µg/mL) and the MIC (Staphylococcus aureus [5]) was 100 µM (≈ 45.6 µg/mL).
`O=C(Cn1c(C2CCNCC2)nc2cc(Cl)c(Cl)cc21)NNC(=O)Nc1ccccc1-c1ccccc1` was tested, and the MIC (Escherichia coli [7]) was 50 µM (≈ 26.9 µg/mL) and the MIC (Staphylococcus aureus [2]) was 25 µM (≈ 13.4 µg/mL).
In the case of `CSc1ccc(NC(=O)NNC(=O)Cn2c(C3CCNCC3)nc3cc(Cl)c(Cl)cc32)cc1`, the MIC (Escherichia coli [7]) was 50 µM (≈ 25.4 µg/mL) and the MIC (Staphylococcus aureus [2]) was 25 µM (≈ 12.7 µg/mL).
`O=C1c2ccccc2C(=O)N1CCCCCCn1c(C2CCNCC2)nc2cc(Cl)c(Cl)cc21` was tested, and the MIC (Escherichia coli [3]) was > 100 µM and the MIC (Staphylococcus aureus [4]) was > 100 µM.
With `COc1cc(/C=N/NC(=O)Cn2c(C3CCNCC3)nc3cc(Cl)c(Cl)cc32)cc([N+](=O)[O-])c1O` the MIC (Escherichia coli [3]) was > 100 µM and the MIC (Staphylococcus aureus [6]) was 50 µM (≈ 26.1 µg/mL).
For `O=C1c2ccccc2C(=O)N1CCCCCn1c(C2CCNCC2)nc2cc(Cl)c(Cl)cc21`, the MIC (Pseudomonas aeruginosa [17]) was 100 µM (≈ 48.5 µg/mL), the MIC (Streptococcus pyogenes [25]) was 50 µM (≈ 24.3 µg/mL) and the MIC (Proteus vulgaris [26]) was 50 µM (≈ 24.3 µg/mL). It also gave an MIC (Streptococcus pneumoniae [18]) of 25 µM (≈ 12.1 µg/mL), an MIC (Staphylococcus aureus [11]) of 12 µM (≈ 5.82 µg/mL) and an MIC (Escherichia coli [7]) of 50 µM (≈ 24.3 µg/mL). The MIC (Klebsiella pneumoniae [27]) was 50 µM (≈ 24.3 µg/mL), the pIC50 (Bacteria) was 4.60 and the MIC (Enterococcus hirae [28]) was 50 µM (≈ 24.3 µg/mL). For the same compound, the MIC (Staphylococcus aureus [29]) was 50 µM (≈ 24.3 µg/mL) and the MIC (Escherichia coli [30]) was 50 µM (≈ 24.3 µg/mL).
